Columns and labels:
ERα/PI3K interaction = assay: In situ Proximity Ligation Assay (PLA) detection of ERα/PI3K interaction in MCF-7 cells; assay type: cell-based, human; details: upon treatment
Source text: (§1) Castoria et al. reported that estrogen rapidly triggers the interaction of ERα with Src and PI3K in MCF-7 cells, forming a complex involved in estrogen nongenomic-induced cell proliferation. […] Therefore the physiological relevance of this signaling pathway remains questionable. To date, immuno fluorescence analysis of the complex has been impeded by the fact that only a small population of ERα interacts with Src and PI3K. To circumvent this problem, we used a newly developed technique, the Proximity Ligation Assay. […] We investigated the ERα/PI3K interaction in the human breast tumor cell line MCF-7, using a rabbit anti-ERα together with a mouse anti-p85 antibody. The ERα/Src interaction was detected using the same anti-ERα together with a mouse anti-Src antibody. […] No dots were detected using only one antibody as confirmed by counting dots per 100 cells (FIG. 1, around 50 dots/cell versus less than 5). Importantly, the number of red dots increased after 5 min of estrogenic treatment then decreased after 15 min. This confirmed that upon estrogenic treatment, the formation of this complex is rapid and transitory (FIG. 2:)). […] They were detected exclusively in the […] of MCF-7 cells, as expected. […]

ERα/Src interaction = assay: In situ Proximity Ligation Assay (PLA) detection of ERα/Src interaction in MCF-7 cells; assay type: cell-based, human; details: upon treatment
Source text: as §1

Cc1ccc(-c2nn(C(C)(C)C)c3ncnc(N)c23)cc1 [PP1]
ERα/PI3K interaction (red dots) by PLA (ERα/PI3K interaction): significant decrease of red dots
ERα/Src interaction (red dots) by PLA (ERα/Src interaction): significant decrease of red dots

CC/C(=C(\c1ccccc1)c1ccc(OCCN(C)C)cc1)c1ccccc1 [tamoxifen]
ERα/PI3K interaction (red dots) by PLA (ERα/PI3K interaction): decrease
ERα/Src interaction (red dots) by PLA (ERα/Src interaction): decrease

Reference: patent US20150212087A1, “Detection of the ERalpha/Src/PI3K Complex as Predictive Marker in Breast Cancer” (Centre Leon Berard, priority 2012, published 2015)
